Data: patent US12029738B2, “Antiproliferative compounds and methods of use thereof” (Celgene Corporation, priority 2017, dated 2024)
Read-outs that look alike come from different tables or passages of the source.

Columns and labels:
[1] = target: T1, dopamine D2S receptor (Homo sapiens, UniProt P14416); assay: Dopamine D2S receptor radioligand binding (HEK-293); settings: 10 μM
T1 construct: host or cells: HEK-293 cells (membrane homogenates)
Procedure: (§1) α1 Adrenergic and Dopamine D2 Receptors. Methods: Binding and functional assays for α1 adrenergic and dopamine D2 receptors were performed by Eurofins Cerep according to their methods.
Dopamine D2 Receptor. Binding at 10 μM. The binding assay evaluated the affinity of test articles for the dopamine D2 receptor in transfected human embryonic kidney (HEK)-293 cells. For determining the binding in the D2S receptor assay, test article was incubated with 0.3 nM [^3H] methylspiperone or 1 nM [^3H] 7-hydroxy-2-N,N-dipropylaminotetralin (7-OH-DPAT). [3H] Methylspiperone at 0.3 nM also was used as control ligand in the D2L binding assay. Cell membrane homogenates were incubated in duplicate at room temperature for 60 minutes with ligand in the absence or presence of test articles at 10 μM. After the incubation period, samples were filtered through glass fiber filters, the filters dried and then counted for radioactivity using a scintillation counter. Results are expressed as mean percent inhibition of control radioligand binding.
Binding IC50. To determine the binding IC50 in the D2 receptor assays, HEK-293 were tested as described above but with varying concentrations of test article. Compound A was tested at 0.01-30 μM in the D2S radioligand binding assay. […] Compound 1 was assayed at 0.03-100 μM in both the D2S and D2L assays, while Compound 2 was tested at 0.03-100 μM in the D2S assay and 0.01-100 μM in the D2L assays. The IC50 was defined as the concentration causing a half-maximum inhibition of control specific binding.

[2] = system: non-selective α1 adrenergic receptor; assay: α1 adrenergic receptor radioligand binding ([3H]prazosin); settings: 10 μM; rat cerebral cortex; 0.25 nM [3H]prazosin
Procedure: as §1
α1 Adrenergic Receptor. Binding at 10 μM. The binding assay evaluated the affinity of test article for the non-selective α1 adrenergic receptor in rat cerebral cortex. Membrane homogenates of cerebral cortex were incubated in duplicate for 60 minutes at room temperature with 0.25 nM [^3H]prazosin in the absence or presence of test articles at 10 μM. After the incubation period, samples were filtered through glass fiber filters, the filters dried and then counted for radioactivity using a scintillation counter. Results are expressed as mean percent inhibition of control radioligand binding.
Binding IC50. […] Compound A was tested at 0.01-30 μM. […] Compound 1 and Compound 2, the S-enantiomer of Compound 1, were assayed at 0.03-100 μM. Radioactivity was measured as described above. The IC50 was defined as the concentration causing a half-maximum inhibition of control specific binding.

[3] = system: MM cell lines H929-1051, KMS11, KMS-12PE, L363, OPM-P10, RPMI8226; assay: Combination with small molecule inhibitors, synergy (Cell Titer-Glo, 3 days); type: cell-based, human; settings: Highest Single Agent method, 6 MM cell lines
Procedure: The effect of combining treatment with Compound 2 and small molecule inhibitors with various mechanisms was evaluated in a panel of MM cell lines. Thirteen small molecule inhibitors were selected for combination studies with Compound 2 based on their preclinical and/or activity against MM. The cell lines H929-1051, KMS11, KMS-12PE, L363, OPM-P10, and RPMI8226 were selected for this study to represent the different genetic clustering groups across MM cell lines. […] Combination agents were dosed in a 6 point dose-response curve (DRC) at a 1:3 dilution, Compound 2 was dosed in a 10 point DRC, also at a 1:3 dilution. The combination experiments were run twice, each time with replicate data on separate plates. Compounds were pre-spotted into the appropriate wells of 384-well plates using an acoustic dispenser. All MM cell lines were cultured in an incubator at 37° C. with 5% CO2 using the indicated cell culture media containing 1× Penicillin-Streptomycin. Cells were added to the compound containing 384-well plates using a Multidrop Combi Reagent Dispenser and allowed to incubate for 3 days at 37° C. with 5% CO2. After 3 days, cells were assessed for their level of ATP content via Cell Titer-Glo measured on a luminescence detector (PerkinElmer Envision).
The Highest Single Agent (HAS) method was used to detect synergy in the dose response curve data. Combinations were analyzed from a response surface perspective. A statistical framework (Van Der Borght, K., et al., BIGL: Biochemically Intuitive Generalized Loewe null model for prediction of the expected combined effect compatible with partial agonism and antagonism; Scientific Reports, 7 (1), 17935-1-17935-9 (2017)) was incorporated into the analysis on top of the HAS null model with two statistical tests: 1) Complete response surface differs from null model, 2) Single well differs from null model.

[4] = system: K562 cells; assay: Coculture of compound-treated IL-2-activated PBMCs with K562 cells; type: cell-based, human; settings: Homo sapiens, K562; IL-2-activated PBMCs treated 72 h; 4 h coculture; read-out: IC50 of compound-treated PBMCs for direct K562 cell killing
Procedure: Coculture Experiments with Peripheral Blood Mononuclear Cells and K562 Cells. Methods: Human Peripheral Blood Mononuclear Cell (PBMC) Preparation: PBMCs isolated from healthy donors were cultured in RPMI 1640 medium with 10% FBS at a density of 1×10^6 cells/mL.
Cell Culture: K562 cells were kept in log phase, and cell density and viability were monitored by trypan blue exclusion using the Vi-CELL® XR cell viability analyzer (Beckman Coulter, Brea, CA).
Assay Procedures: Freshly isolated human PBMCs were cultured with recombinant IL-2 at concentration of 20 units/mL for 72 h. Peripheral blood mononuclear cells were then spun down and re-suspended in fresh RPMI complete medium to 2×10^6 cells/mL. Cells were then treated with DMSO or compounds at the indicated concentrations and incubated for an additional 72 h. The PBMCs were then washed twice in fresh RPMI complete medium prior to coculture. K562 cells were re-suspended to a cell density of 1×10^6/mL and stained with 1 μM CellTrace CFSE according to manufacturer's instructions. The labeled K562 cells were then seeded into a 96-well round bottom plate at 1×10^5 cells/well. Peripheral blood mononuclear cells were then transferred into the same 96-well plate at a 1:15 ratio, in triplicate and incubated at 37° C. for 4 h. Specific target cell lysis by PBMC cells was measured using Annexin V-fluorescein isothiocyanate (FITC) and propidium iodide (PI) according to manufacturer's instructions and samples were run on the FACS Array scan. Non-labeled K562 cells, CellTrace CFSE-labeled K562 cells, and Annexin V-FITC- and PI labeled untreated K562 cells were included in each assay as controls.

[5] = system: H929-1051; assay: PBMC and MM cell treatment assay (single culture vs co-culture); type: cell-based, human; settings: Homo sapiens, PBMC, H929-1051, read-out: Immune-mediated Cell Killing IC50
Procedure: (§2) PBMC and MM Cell Treatment Assay Procedure. Ninety-six-well dishes were pre-coated with anti-CD3 antibody (OKT3, 3 μg/mL) and incubated at 4° C. overnight before the start of the experiment. Frozen PBMC donor cells were thawed at 37° C. for 2 minutes in RPMI medium with 10% FBS and cell counts and viability were measured on the Vi-CELL analyzer. Peripheral blood mononuclear cells were washed and diluted to 1×10^6 cells/mL and dispensed into the compound-treated plates in a total volume of 200 μL. Cells were incubated with compounds for 2 h before being transferred onto anti-CD3-coated plates and incubated for an additional 72 h. At the same time, MM cell lines (NCI-H929, H929-1051, OPM2, OPM2-P10) were diluted to a final concentration of 0.1×10^6 cells/mL and labeled with CellTrace CFSE according to manufacturer's instructions. Multiple myeloma cell lines were then dispensed into compound-treated plates at a total volume of 200 μL and incubated for 72 h. After 72 h, the PBMCs and MM cells were counted and transferred into a U-bottom 96-well plate at a final T:E ratio of 1:5. After 24 h coculture, specific target cell lysis by PBMC cells was measured using Annexin V-AF647 and 7-AAD according to manufacturer's instructions and samples were run on the Attune NxT Cytometer.
(§3) Because preincubation of immune cells with Compound 2 enhanced the targeting and lysing of MM cells, the effect of preincubation of MM cells with Compound 2 on their susceptibility to immune-mediated killing was also explored (FIG. 16A, FIG. 16B, FIG. 16C, and FIG. 16D, Table 12). Four MM cell lines and anti-CD3 antibody-activated PBMCs were separately preincubated with Compound 2, lenalidomide, or pomalidomide for 72 h. When anti-CD3 antibody-activated PBMCs and MM lines were both pretreated with Compound 2, lenalidomide, or pomalidomide, followed by co-culture, the effects on the PBMC-induced MM cell lysis were enhanced both in the potency and magnitude of the killing response. […] For the pomalidomide-resistant OPM2-P10 cell line, Compound 2 treatment of the MM cells enhanced the immune-mediated killing by ˜3000-fold (Table 12).

[6] = system: NCI-H929; assay: as above; type: cell-based, human; settings: Homo sapiens, NCI-H929, NCI-H929, read-out: Immune-mediated Cell Killing IC50
Procedure: as §2, §3

[7] = system: OPM2-P10; assay: as above; type: cell-based, human; settings: Homo sapiens, PBMC, read-out: Immune-mediated Cell Killing IC50
Procedure: as §2, §3

[8] = system: OPM2; assay: as above; type: cell-based; settings: Homo sapiens, OPM-2, OPM2, read-out: Immune-mediated Cell Killing IC50
Procedure: as §2, §3

[9] = system: RPMI-8226; assay: as above; type: cell-based; settings: Homo sapiens, RPMI-8226, RPMI-8226, read-out: Immune-mediated Cell Killing IC50

T1 sequence (P14416 1-414 isoform P14416-2): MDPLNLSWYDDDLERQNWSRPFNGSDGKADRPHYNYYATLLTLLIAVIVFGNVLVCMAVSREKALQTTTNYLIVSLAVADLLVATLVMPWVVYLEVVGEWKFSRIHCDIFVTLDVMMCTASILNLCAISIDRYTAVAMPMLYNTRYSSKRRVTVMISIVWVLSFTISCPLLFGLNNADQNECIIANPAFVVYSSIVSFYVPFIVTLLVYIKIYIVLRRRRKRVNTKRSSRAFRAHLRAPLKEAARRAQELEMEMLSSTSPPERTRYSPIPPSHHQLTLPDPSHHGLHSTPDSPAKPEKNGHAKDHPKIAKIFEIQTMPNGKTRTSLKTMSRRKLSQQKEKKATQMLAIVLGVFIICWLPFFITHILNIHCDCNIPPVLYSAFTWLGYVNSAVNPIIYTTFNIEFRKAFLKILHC

O=C1CCC(N2Cc3c(OCc4ccc(CN5CCN(c6ccccc6)CC5)cc4)cccc3C2=O)C(=O)N1 (racemic) [Ex. 5.229]
Dopamine D2S % Inhibition (10 μM) [1]: 98.7%

O=C1CCC(N2Cc3c(OCc4ccc(CN5CCN(c6ccc(F)cc6)CC5)cc4)cccc3C2=O)C(=O)N1 (racemic) [Ex. 5.273]
Adrenergic α1 (non-selective) % Inhibition (10 μM) [2]: 100.3%
Dopamine D2S % Inhibition (10 μM) [1]: 94.7%

O=C1CCC(N2C(=O)c3cccc(OCc4ccc(CN5CCN(c6ccc(F)cc6)CC5)cc4)c3C2=O)C(=O)N1 (racemic) [Ex. 5.289]
Dopamine D2S % Inhibition (10 μM) [1]: 92.4%

O=C(CCCCCCNC(=O)c1cnc(N(c2ccccc2)c2ccccc2Cl)nc1)NO [ACY241]
synergistic activity in combination with Compound 2 (cell lines) [3]: synergistic in L363/OPM2-P10

CO[C@H]1/C=C/C[C@H](C)[C@@H](C)S(=O)(=O)NC(=O)c2ccc3c(c2)N(C[C@@H]2CC[C@H]21)C[C@@]1(CCCc2cc(Cl)ccc21)CO3 [AMG176]
synergistic activity in combination with Compound 2 (cell lines) [3]: synergistic activity in three cell lines (KMS11, KMS12-PE, L363)

Cn1cc(-c2cc(S(C)(=O)=O)ccc2OCC2CC2)c2ccccc2c1=O [Compound D, 4-[2-(cyclopropylmethoxy)-5-(methanesulfonyl)phenyl]-2-methylisoquinolin-1(2H)-one]
synergistic activity in combination with Compound 2 (cell lines) [3]: synergistic activity in the MM cells

COc1ccc(-c2c(-c3ccc(C#N)c(F)c3)nc(N3CCC(N)CC3)n(C)c2=O)cc1F [Compound E, 4-[2-(4-amino-piperidin-1-yl)-5-(3-fluoro-4-methoxy-phenyl)-1-methyl-6-oxo-1,6-dihydropyrimidin-4-yl]-2-fluoro-benzonitrile]
synergistic activity in combination with Compound 2 (cell lines) [3]: synergistic in L363 and KMS12-PE cells

Nc1cccc2c1CN(C1CCC(=O)NC1=O)C2=O (stereo not drawn) [Lenalidomide, lenalidomide]
IC50 [4]: 20 nM
IC50 ([5]; Co-culture with PBMCs): 878 nM
IC50 ([5]; Single culture): > 10000 nM
IC50 ([6]; Co-culture with PBMCs): 317 nM
IC50 ([6]; Single culture): > 10000 nM
IC50 ([7]; Co-culture with PBMCs): 8090 nM
IC50 ([7]; Single culture): > 10000 nM
IC50 ([8]; Co-culture with PBMCs): 1720 nM
IC50 ([8]; Single culture): > 10000 nM
IC50 ([9]; Co-culture with PBMCs): 124 nM
IC50 ([9]; Single culture): > 10000 nM

Cc1sc2c(c1C)C(c1ccc(Cl)cc1)=N[C@@H](CC(=O)Nc1ccc(O)cc1)c1nnc(C)n1-2 [birabresib]
synergistic activity in combination with Compound 2 (cell lines) [3]: synergistic activity in the MM cells

MIK665
synergistic activity in combination with Compound 2 (cell lines) [3]: did not show significant synergy in the 6 MM cell lines tested
